The text below walks through data of ChEMBL document CHEMBL1140113, “Structural requirements for drug inhibition of the liver specific human organic cation transport protein 1” (J Med Chem, 2008).

In this data set the target is T1, OCT1 (SLC22A1) (Homo sapiens, UniProt O15245).
T1 sequence (O15245 whole entry): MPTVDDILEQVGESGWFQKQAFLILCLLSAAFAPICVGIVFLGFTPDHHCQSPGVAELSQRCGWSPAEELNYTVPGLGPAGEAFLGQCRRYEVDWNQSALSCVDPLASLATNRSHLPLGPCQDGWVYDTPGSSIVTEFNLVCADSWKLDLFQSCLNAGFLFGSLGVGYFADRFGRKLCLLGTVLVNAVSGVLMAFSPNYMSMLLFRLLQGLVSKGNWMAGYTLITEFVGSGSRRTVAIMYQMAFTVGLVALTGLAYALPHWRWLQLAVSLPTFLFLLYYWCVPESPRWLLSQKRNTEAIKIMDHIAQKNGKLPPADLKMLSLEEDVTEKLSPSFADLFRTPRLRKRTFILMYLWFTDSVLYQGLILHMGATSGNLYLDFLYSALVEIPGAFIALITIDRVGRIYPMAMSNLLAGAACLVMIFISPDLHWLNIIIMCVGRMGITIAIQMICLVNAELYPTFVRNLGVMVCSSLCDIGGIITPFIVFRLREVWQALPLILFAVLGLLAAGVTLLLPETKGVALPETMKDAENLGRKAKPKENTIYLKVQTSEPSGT
In words: in vitro.

The mark [1] stands for this setting: HEK293 cells that express human OCT1, probe 4-(4-(dimethylamino)styryl)-N-methylpyridinium.

Broadly, the inhibition is the drop in the measured response relative to a control, in per cent. For `CC(=O)N1CCN(c2ccc(OCC3COC(Cn4ccnc4)(c4ccc(Cl)cc4Cl)O3)cc2)CC1` (centres undefined) [KETOCONAZOLE], the inhibition at 100 µM under setting [1] is 82.3%.
Same read-out and setting: under `O=C1CC2(CCCC2)CC(=O)N1CCCCN1CCN(c2ncccn2)CC1` [BUSPIRONE] stands 24.7%; under `CCN(CC)CC(=O)Nc1c(C)cccc1C` [LIDOCAINE], -2.3%.
Regarding `NCCc1ccc(O)c(O)c1` [DOPAMINE], the inhibition at 100 µM (hek293) was determined as 11.8%.
As to `O=C(O)Cc1ccccc1Nc1c(Cl)cccc1Cl` [DICLOFENAC], the inhibition at 100 µM under setting [1] is -3.7%.
On the same count and under the same terms, the result for `COc1ccc2c3c1O[C@H]1[C@@H](O)C=C[C@H]4[C@@H](C2)N(C)CC[C@@]341` [CODEINE] reads 39.1%.
On the same count and under the same terms, under `Nc1nc2c(ncn2COCCO)c(=O)[nH]1` [ACYCLOVIR] stands -3.9%.
The same measure, in the same setting: under `Cc1ccc(-c2cc(C(F)(F)F)nn2-c2ccc(S(N)(=O)=O)cc2)cc1` [CELECOXIB] stands 7.7%; under `C[C@H]1c2cccc(O)c2C(=O)C2=C(O)[C@]3(O)C(=O)C(C(N)=O)=C(O)[C@@H](N(C)C)[C@@H]3[C@@H](O)[C@@H]21` [DOXYCYCLINE], 27.4%; under `NC(=O)N1c2ccccc2C=Cc2ccccc21` [CARBAMAZEPINE], 8.4%.
Take `CN1C(=O)CN=C(c2ccccc2)c2cc(Cl)ccc21` [DIAZEPAM]: the inhibition at 100 µM under setting [1] came out at 5%.
With `CC(=O)Oc1ccccc1C(=O)O` [ASPIRIN], the inhibition at 100 µM under setting [1] was -5.7%.
Same read-out and setting: the result for `CC(=O)O[C@H]1C(=O)[C@@]2(C)[C@H]([C@H](OC(=O)c3ccccc3)[C@]3(O)C[C@H](OC(=O)[C@H](O)[C@@H](NC(=O)c4ccccc4)c4ccccc4)C(C)=C1C3(C)C)[C@]1(OC(C)=O)CO[C@@H]1C[C@@H]2O` [PACLITAXEL] reads 7.1%; that for `O=C(N[C@H](CO)[C@H](O)c1ccc([N+](=O)[O-])cc1)C(Cl)Cl` [CHLORAMPHENICOL], 1.4%.
Turning to `CN1C[C@H](C(=O)N[C@]2(C)O[C@@]3(O)[C@@H]4CCCN4C(=O)[C@H](Cc4ccccc4)N3C2=O)C=C2c3cccc4[nH]cc(c34)C[C@H]21` [ERGOTAMINE], the inhibition at 100 µM under setting [1] was 16.7%.
Same read-out and setting: the result for `CCN(CC)CCNC(=O)c1ccc(NC(C)=O)cc1` [ACECAINIDE] reads 13.7%; that for `O=C(O)c1cc(/N=N/c2ccc(S(=O)(=O)Nc3ccccn3)cc2)ccc1O` [SULFASALAZINE], -3.7%.
Still for that read-out and setting: under `N[C@@H](Cc1cc(I)c(Oc2cc(I)c(O)c(I)c2)c(I)c1)C(=O)O` [LEVOTHYROXINE] stands 12.7%; under `C[C@H](CS)C(=O)N1CCC[C@H]1C(=O)O` [CAPTOPRIL], 0.3%; under `CC(=O)CC(c1ccccc1)c1c(O)c2ccccc2oc1=O` (centres undefined) [WARFARIN], 4%.
Still for that read-out and setting: under `C[C@](N)(Cc1ccc(O)c(O)c1)C(=O)O` [METHYLDOPA] stands -7.2%.
Take `CC1COc2c(N3CCN(C)CC3)c(F)cc3c(=O)c(C(=O)O)cn1c23` (centres undefined) [OFLOXACIN]: the inhibition at 100 µM under setting [1] stood at 21.1%.
Still for that read-out and setting: the result for `CN[C@H](CC(C)C)C(=O)N[C@H]1C(=O)N[C@@H](CC(N)=O)C(=O)N[C@H]2C(=O)N[C@H]3C(=O)N[C@H](C(=O)N[C@H](C(=O)O)c4cc(O)cc(O)c4-c4cc3ccc4O)[C@H](O)c3ccc(c(Cl)c3)Oc3cc2cc(c3O[C@@H]2O[C@H](CO)[C@@H](O)[C@H](O)[C@H]2O[C@H]2C[C@](C)(N)[C@H](O)[C@H](C)O2)Oc2ccc(cc2Cl)[C@H]1O` [VANCOMYCIN] reads 7.1%; that for `CC[C@]1(O)C[C@@H]2CN(CCc3c([nH]c4ccccc34)[C@@](C(=O)OC)(c3cc4c(cc3OC)N(C)[C@H]3[C@@](O)(C(=O)OC)[C@H](OC(C)=O)[C@]5(CC)C=CCN6CC[C@]43[C@@H]65)C2)C1` [VINBLASTINE], 1.9%.
For the molecule `O=P1(N(CCCl)CCCl)NCCCO1` (centres undefined) [CYCLOPHOSPHAMIDE ANHYDROUS], the inhibition at 100 µM (hek293) is 4.7%.
On to `CN1CCN(C2=Nc3cc(Cl)ccc3Nc3ccccc32)CC1` [CLOZAPINE], for which, under setting [1], the inhibition at 100 µM came to 47.5%.
In the case of `COc1cc(Cc2cnc(N)nc2N)cc(OC)c1OC` [TRIMETHOPRIM], the inhibition at 100 µM (hek293) was determined as 58.1%.
Turning to `CC(C)NCC(O)c1ccc(NS(C)(=O)=O)cc1` (centres undefined) [SOTALOL], the inhibition at 100 µM under setting [1] was found to be 31.8%.
Take `CN/C(=N/CCSCc1nc[nH]c1C)NC#N` [CIMETIDINE]: the inhibition at 100 µM (hek293) was 8.1%.
Take `CCCN(CCC)S(=O)(=O)c1ccc(C(=O)O)cc1` [PROBENECID]: the inhibition at 100 µM under setting [1] was -8.9%.
On the same count and under the same terms, the result for `Cn1c(=O)c2[nH]cnc2n(C)c1=O` [THEOPHYLLINE] reads -4.4%.
The same measure, in the same setting: under `CN(C)[C@@H]1C(O)=C(C(N)=O)C(=O)[C@@]2(O)C(O)=C3C(=O)c4c(O)cccc4[C@@](C)(O)[C@H]3C[C@@H]12` [TETRACYCLINE] stands 10.4%.
Consider `NCCc1c[nH]cn1` [HISTAMINE], for which the inhibition at 100 µM (hek293) came out at 4.1%.
For `C[C@]12CCC(=O)C=C1CC[C@@H]1[C@@H]2CC[C@]2(C)C(=O)CC[C@@H]12` [ANDROSTENEDIONE], the inhibition at 100 µM under setting [1] was 65.1%.
As for `C[C@H]1O[C@H](O[C@H]2[C@H](O)[C@@H](O)[C@@H](O[C@H]3[C@H](O)[C@@H](O)C(O)O[C@@H]3CO)O[C@@H]2CO)[C@H](O)[C@@H](O)[C@@H]1N[C@H]1C=C(CO)[C@@H](O)[C@H](O)[C@H]1O` (some centres undefined) [ACARBOSE], under setting [1], the inhibition at 100 µM turned out to be 3.9%.
With `CC(C)(C)NCC(O)c1cc(O)cc(O)c1` (centres undefined) [TERBUTALINE], the inhibition at 100 µM under setting [1] was 2.6%.
On the same count and under the same terms, under `CC(C)(C)NC(=O)[C@@H]1CN(Cc2cccnc2)CCN1C[C@@H](O)C[C@@H](Cc1ccccc1)C(=O)N[C@H]1c2ccccc2C[C@H]1O` stands 43%.
The same measure, in the same setting: under `CCOC(=O)[C@H](CCc1ccccc1)N[C@@H](C)C(=O)N1CCC[C@H]1C(=O)O` stands 14.6%; under `CCN(CC)CCNC(=O)c1ccc(N)cc1` [PROCAINAMIDE], 26.5%.
Same read-out and setting: under `CC(C(=O)O)c1cccc(C(=O)c2ccccc2)c1` (centres undefined) [KETOPROFEN] stands -9.4%; under `CC(C)(C)NC[C@H](O)COc1nsnc1N1CCOCC1` [TIMOLOL], 39%.
On to `O=P(O)(O)C(Cl)(Cl)P(=O)(O)O` [CLODRONIC ACID], for which the inhibition at 100 µM under setting [1] worked out at 5.6%.
Still for that read-out and setting: under `Cc1cn([C@H]2C[C@H](N=[N+]=[N-])[C@@H](CO)O2)c(=O)[nH]c1=O` [ZIDOVUDINE] stands 4.7%; under `CN(Cc1cnc2nc(N)nc(N)c2n1)c1ccc(C(=O)N[C@@H](CCC(=O)O)C(=O)O)cc1` [METHOTREXATE], 26.3%.
Turning to `CNC(=C[N+](=O)[O-])NCCSCc1ccc(CN(C)C)o1` [RANITIDINE], under setting [1], the inhibition at 100 µM amounted to 28.8%.
On the same count and under the same terms, the result for `O=C1Nc2ccc(Cl)cc2[C@@](C#CC2CC2)(C(F)(F)F)O1` [EFAVIRENZ] reads 37%; that for `CCCC1O[C@@H]2C[C@H]3[C@@H]4CCC5=CC(=O)C=C[C@]5(C)[C@H]4[C@@H](O)C[C@]3(C)[C@]2(C(=O)CO)O1` (some centres undefined) [BUDESONIDE], 38.2%; that for `NCC(CC(=O)O)c1ccc(Cl)cc1` (centres undefined) [BACLOFEN], 20.7%.
As for `CC(C)[N+]1(C)[C@@H]2CC[C@H]1C[C@@H](OC(=O)C(CO)c1ccccc1)C2` (some centres undefined), the inhibition at 100 µM under setting [1] stood at 43.4%.
Still for that read-out and setting: the result for `CC(=O)[C@@]1(O)CC[C@H]2[C@@H]3C=C(Cl)C4=CC(=O)[C@@H]5C[C@@H]5[C@]4(C)[C@H]3CC[C@@]21C` [CYPROTERONE] reads 61.6%.
With `NNc1nncc2ccccc12` [HYDRALAZINE], the inhibition at 100 µM (hek293) came to 6.5%.
With `OC[C@@H](O)[C@@H](O)[C@H](O)[C@H](O)CO` [MANNITOL], under setting [1], the inhibition at 100 µM was -1.4%.
Still for that read-out and setting: under `Cc1cnc(C(=O)NCCc2ccc(S(=O)(=O)NC(=O)NC3CCCCC3)cc2)cn1` [GLIPIZIDE] stands -12.7%; under `CC(C)OC(=O)C(C)(C)Oc1ccc(C(=O)c2ccc(Cl)cc2)cc1` [FENOFIBRATE], 0.2%.
Still for that read-out and setting: under `CCC(C)(C)C(=O)O[C@H]1C[C@@H](C)C=C2C=C[C@H](C)[C@H](CC[C@@H]3C[C@@H](O)CC(=O)O3)[C@H]21` [SIMVASTATIN] stands 22.6%; under `Nc1nc2ncc(CNc3ccc(C(=O)N[C@@H](CCC(=O)O)C(=O)O)cc3)nc2c(=O)[nH]1` [FOLIC ACID], 33%; under `C[C@]12C=CC(=O)C=C1CC[C@@H]1[C@@H]2C(=O)C[C@@]2(C)[C@H]1CC[C@]2(O)C(=O)CO` [PREDNISONE], 23.3%.
For `Cc1cc(=O)n(-c2ccccc2)n1C` [ANTIPYRINE], the inhibition at 100 µM under setting [1] is 20.7%.
The same measure, in the same setting: the result for `COc1ccc(CCN(C)CCCC(C#N)(c2ccc(OC)c(OC)c2)C(C)C)cc1OC` (centres undefined) reads 86.4%; that for `CCN(CC)CCCC(C)Nc1ccnc2cc(Cl)ccc12` (centres undefined) [CHLOROQUINE], 46%.
Still for that read-out and setting: under `C=C[C@H]1C[N@@]2CC[C@H]1C[C@H]2[C@H](O)c1ccnc2ccc(OC)cc12` [QUININE] stands 60.2%; under `COc1cc2nc(N3CCN(C(=O)C4COc5ccccc5O4)CC3)nc(N)c2cc1OC` (centres undefined) [DOXAZOSIN], 85.6%; under `CCC1(c2ccccc2)C(=O)NC(=O)NC1=O` [PHENOBARBITAL], -6%.
As for `CCOc1nc2cccc(C(=O)O)c2n1Cc1ccc(-c2ccccc2-c2nnn[nH]2)cc1`, the inhibition at 100 µM under setting [1] was 6.3%.
